Patent publication US7268159B2, “Substituted indoles” (Wyeth, priority 2003, dated 2007)

Assays:
[1] = target: T1, recombinant human plasminogen activator inhibitor-1 (PAI-1) (Homo sapiens, UniProt P05121); test: Primary screen for the PAI-1 inhibition (residual tPA activity, Spectrozyme-tPA chromogenic substrate); type: biochemical; conditions: 140 nM PAI-1, 70 nM tPA, pH 6.6; for inhibition at 10 µM: 10 μM test compound; for inhibition at 25 µM: 25 μM test compound
T1 construct: purchased Molecular Innovations, Royal Oak, Mich
Description: Test compounds are dissolved in DMSO at a final concentration of 10 mM, then diluted 100× in physiologic buffer. The inhibitory assay is initiated by the addition of the test compound (1-100 μM final concentration, maximun DMSO concentration of 0.2%) in a pH 6.6 buffer containing 140 nM recombinant human plasminogen activator inhibitor-1 (PAI-1; Molecular Innovations, Royal Oak, Mich.). Following a 1 hour incubation at room temperature, 70 nM of recombinant human tissue plasminogen activator (tPA) is added, and the combination of the test compound, PAI-1 and tPA is incubated for an additional 30 minutes. Following the second incubation, Spectrozyme-tPA (American Diagnostica, Greenwich, Conn.), a chromogenic substrate for tPA, is added and absorbance read at 405 nm at 0 and 60 minutes. Relative PAI-1 inhibition is equal to the residual tPA activity in the presence of the test compound and PAI-1. Control treatments include the complete inhibition of tPA by PAI-1 at the molar ratio employed (2:1), and the absence of any effect of the test compound on tPA alone.

[2] = target: human PAI-1 (Homo sapiens, UniProt P05121); test: Assay for determining IC50 of inhibition of PAI-1 (active PAI-1 bound to tPA-coated plate, antibody detection); type: binding; conditions: human PAI-1 50 ng/ml, pH 7.5
Description: This assay is based upon the non-SDS dissociable interaction between tPA and active PAI-1. Assay plates are initially coated with human tPA (10 μg/ml). Test compounds of the present invention are dissolved in DMSO at 10 mM, then diluted with physiologic buffer (pH 7.5) to a final concentration of 1-50 μM. Test compounds are incubated with human PAI-1 (50 ng/ml) for 15 minutes at room temperature. The tPA-coated plate is washed with a solution of 0.05% Tween 20 and 0.1% BSA, then the plate is blocked with a solution of 3% BSA. An aliquot of the substituted indole/PAI-1 solution is then added to the tPA-coated plate, incubated at room temperature for 1 hour, and washed. Active PAI-1 bound to the plate is assessed by adding an aliquot of a 1:1000 dilution of the 33B8 monoclonal antibody against human PAI-1, and incubating the plate at room temperature for 1 hour (Molecular Innovations, Royal Oak, Mich.) The plate is again washed, and a solution of goat anti-mouse IgG-alkaline phosphatase conjugate is added at a 1:50,000 dilution in goat serum. […] The plate is incubated 45 minutes at room temperature, and color development is determined at OD405 nm. The quantitation of active PAI-1 bound to tPA at varying concentrations of the test compound is used to determine the IC50. Results are analyzed using a logarithmic best-fit equation. […]

T1 sequence (P05121 24-402): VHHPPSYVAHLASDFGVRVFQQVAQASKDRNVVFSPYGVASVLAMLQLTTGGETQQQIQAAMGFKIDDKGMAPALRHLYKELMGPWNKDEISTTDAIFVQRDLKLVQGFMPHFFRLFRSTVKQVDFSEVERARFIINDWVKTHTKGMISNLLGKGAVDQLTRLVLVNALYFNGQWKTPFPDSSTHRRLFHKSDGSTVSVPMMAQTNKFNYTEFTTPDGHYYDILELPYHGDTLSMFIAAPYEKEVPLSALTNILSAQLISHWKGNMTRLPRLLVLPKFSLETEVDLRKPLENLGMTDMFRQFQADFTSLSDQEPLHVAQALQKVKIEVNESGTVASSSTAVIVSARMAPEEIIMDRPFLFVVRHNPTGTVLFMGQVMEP
Sequence of human PAI-1 (P05121 24-402): as above

| Structure (SMILES) | inhibition at 10 µM [1] | inhibition at 25 µM [1] | IC50 [2] |
| --- | --- | --- | --- |
| O=C(O)c1cc2ccccc2n1-c1ccc(NS(=O)(=O)c2ccc(OC(F)(F)F)cc2)cc1 [Compound 1, 1-[4-({[4-(trifluoromethoxy)phenyl]sulfonyl}amino)phenyl]-1H-indole-2-carboxylic acid] | 39% | 40% | – |
| O=C(O)c1cc2ccccc2n1-c1ccc(-n2cccc2)cc1 [Compound 2, 1-[4-(1H-pyrrol-1-yl)phenyl]-1H-indole-2-carboxylic acid] | 15% | 35% | – |
| O=C(O)c1cc2ccccc2n1Cc1ccc(NS(=O)(=O)c2ccc(-c3ccccc3)cc2)cc1 [Compound 3, 1-{4-[(1,1′-biphenyl-4-ylsulfonyl)amino]benzyl}-1H-indole-2-carboxylic acid] | – | 66% | – |
| CC(C)(C)c1ccc(S(=O)(=O)Nc2ccc(Cn3ccc4cc(C(=O)O)ccc43)cc2)cc1 [Compound 4, 1-(4-{[(4-tert-butylphenyl)sulfonyl]amino}benzyl)-1H-indole-5-carboxylic acid] | – | 27% | – |
| O=C(O)c1ccc2c(ccn2Cc2ccc(NS(=O)(=O)c3ccc(-c4ccccc4)cc3)cc2)c1 [Compound 5, 1-{4-[(1,1′-biphenyl-4-ylsulfonyl)amino]benzyl}-1H-indole-5-carboxylic acid] | – | 22% | – |
| CC(C)(C)c1ccc(S(=O)(=O)Nc2ccc(Cn3cc(C(=O)O)c4ccccc43)cc2)cc1 [Compound 6, 1-(4-{[(4-tert-butylphenyl)sulfonyl]amino}benzyl)-1H-indole-3-carboxylic acid] | 19% | 28% | – |
| O=C(O)c1cn(Cc2ccc(NS(=O)(=O)c3ccc(-c4ccccc4)cc3)cc2)c2ccccc12 [Compound 7, 1-{4-[(1,1′-biphenyl-4-ylsulfonyl)amino]benzyl}-1H-indole-3-carboxylic acid] | 25% | 27% | – |
| CC(C)(C)c1ccc(S(=O)(=O)Nc2ccc(Cn3ccc4c(C(=O)O)cccc43)cc2)cc1 [Compound 8, 1-(4-{[(4-tert-butylphenyl)sulfonyl]amino}benzyl)-1H-indole-4-carboxylic acid] | 27% | 47% | – |
| O=C(O)c1cccc2c1ccn2Cc1ccc(NS(=O)(=O)c2ccc(-c3ccccc3)cc2)cc1 [Compound 9, 1-{4-[(1,1′-biphenyl-4-ylsulfonyl)amino]benzyl}-1H-indole-4-carboxylic acid] | 26% | 35% | – |
| O=C(O)c1ccc2ccn(Cc3ccc(NS(=O)(=O)c4ccc(-c5ccccc5)cc4)cc3)c2c1 [Compound 10, 1-{4-[(1,1′-biphenyl-4-ylsulfonyl)amino]benzyl}-1H-indole-6-carboxylic acid] | 26% | 30% | – |
| O=C(O)c1c(-c2ccccc2)c2ccccc2n1Cc1ccc(NS(=O)(=O)c2ccccc2)cc1 [Compound 11, 3-phenyl-1-{4-[(phenylsulfonyl)amino]benzyl}-1H-indole-2-carboxylic acid] | 51% | 71% | – |
| CS(=O)(=O)Nc1ccc(Cn2c(C(=O)O)c(-c3ccccc3)c3ccccc32)cc1 [Compound 12, 1-{4-[(methylsulfonyl)amino]benzyl}-3-phenyl-1H-indole-2-carboxylic acid] | 42% | 49% | – |
| O=C(O)c1c(-c2cccs2)c2ccccc2n1Cc1ccc(NS(=O)(=O)c2ccccc2)cc1 [Compound 13, 1-{4-[(phenylsulfonyl)amino]benzyl}-3-thien-2-yl-1H-indole-2-carboxylic acid] | 50% | 79% | – |
| CS(=O)(=O)Nc1ccc(Cn2c(C(=O)O)c(-c3cccs3)c3ccccc32)cc1 [Compound 14, 1-{4-[(methylsulfonyl)amino]benzyl}-3-thien-2-yl-1H-indole-2-carboxylic acid] | 45% | 53% | – |
| Cc1ccc(C)n1-c1ccc(Cn2c(C(=O)O)c(-c3ccccc3)c3ccccc32)cc1 [Compound 15, 1-[4-(2,5-dimethyl-1H-pyrrol-1-yl)benzyl]-3-phenyl-1H-indole-2-carboxylic acid] | 53% | 69% | 2.51 µM |
| O=C(O)c1c(-c2ccccc2)c2ccccc2n1Cc1ccc(Nc2ccccc2)cc1 [Compound 16, 1-(4-anilinobenzyl)-3-phenyl-1H-indole-2-carboxylic acid] | 26% | 32% | – |
| O=C(O)c1c(-c2cccs2)c2ccccc2n1Cc1ccc(Nc2ccccc2)cc1 [Compound 17, 1-(4-anilinobenzyl)-3-thien-2-yl-1H-indole-2-carboxylic acid] | 25% | 35% | – |
